These results are taken from publication PMC6690934, “High-density immobilization of a ginsenoside-transforming β-glucosidase for enhanced food-grade production of minor ginsenosides” (Applied Microbiology and Biotechnology, 2019).

The assay addresses T1, MT619 (Microbacterium testaceum, UniProt E8N6P7).
T1 construct: gene MTES_2447; codon-optimized synthetic gene (MK575514); E. coli BL21; purified by Ni and DEAE columns
T1 sequence (E8N6P7 1-619): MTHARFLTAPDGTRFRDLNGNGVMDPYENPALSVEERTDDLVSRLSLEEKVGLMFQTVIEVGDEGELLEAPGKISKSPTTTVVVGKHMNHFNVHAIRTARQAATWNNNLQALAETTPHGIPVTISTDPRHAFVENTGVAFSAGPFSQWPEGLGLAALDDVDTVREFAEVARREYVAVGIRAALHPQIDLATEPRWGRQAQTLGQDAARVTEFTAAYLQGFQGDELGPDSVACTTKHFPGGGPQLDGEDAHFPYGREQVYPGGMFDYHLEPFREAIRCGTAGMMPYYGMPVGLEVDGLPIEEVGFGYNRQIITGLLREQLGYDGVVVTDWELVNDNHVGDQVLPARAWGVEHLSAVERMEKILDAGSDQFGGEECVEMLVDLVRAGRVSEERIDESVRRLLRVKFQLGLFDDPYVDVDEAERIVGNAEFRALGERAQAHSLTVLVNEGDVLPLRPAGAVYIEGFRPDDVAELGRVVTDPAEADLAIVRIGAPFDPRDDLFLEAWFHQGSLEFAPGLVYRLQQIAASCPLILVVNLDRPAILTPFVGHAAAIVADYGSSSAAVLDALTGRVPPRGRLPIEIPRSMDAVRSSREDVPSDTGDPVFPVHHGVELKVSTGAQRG
The experiment in a line: TLC of hydrolysis products. The class given is biochemical. Particulars: pH 7.0, 37 °C, 2.0 mg/mL substrate, 0.1 mg/mL enzyme.

For `CC(C)=CCC[C@](C)(O[C@@H]1O[C@H](CO[C@@H]2O[C@H](CO)[C@@H](O)[C@H](O)[C@H]2O)[C@@H](O)[C@H](O)[C@H]1O)[C@H]1CC[C@]2(C)[C@@H]1[C@H](O)C[C@@H]1[C@@]3(C)CC[C@H](O[C@@H]4O[C@H](CO)[C@@H](O)[C@H](O)[C@H]4O[C@@H]4O[C@H](CO)[C@@H](O)[C@H](O)[C@H]4O)C(C)(C)[C@@H]3CC[C@]12C` [Rb1], the “TLC of hydrolysis products” value is “MT619 could clearly transform four major ginsenosides (Re, Rg1, Rb1, and Rd)”.
